{"source": "patent US6514997B2", "about": "“Antipicornaviral compounds and compositions, their pharmaceutical uses, and materials for their synthesis” (Agouron Pharmaceuticals, Inc., priority 1999, dated 2003)", "key": {"[1]": {"test_system": "Coxsackievirus type B3 (CVB3)", "test": "Anticoxsackieviral cell culture assay (XTT, EC50), CVB3", "type": "cell-based, coxsackievirus B3 in H1-HeLa cells", "protocol": "Anticoxsackieviral Cell Culture Assay:\nCoxsackievirus types A-21 (CAV-21) and B3 (CVB3) were purchased from American Type Culture Collection (ATCC, Rockville, Md.). Virus stocks were propagated and antiviral assays were performed in H1-HeLa cells (ATCC). Cells were grown in minimal essential medium with 10% fetal bovine serum (Life Technologies, Gaithersburg, Md.). The ability of the compounds of this invention to protect cells against either CAV-21 or CVB3 infection was measured by the XTT dye reduction method. This method is described in Weislow et al., J. Natl. Cancer Inst. (1989), vol. 81, 577-586. H1-HeLa cells were infected with CAV-21 or CVB3 at a multiplicity of infection (m.o.i.) of 0.025 or 0.075, respectively, or mock-infected with medium only. H1-HeLa cells were plated at 4×10^4 cells per well in a 96-well plate and incubated with appropriate concentrations of the test compound. One day (CVB3) or two days (CAV-21) later, XTT/PMS was added to test plates and the amount of formazan produced was quantified spectrophotometrically at 450/650 nm. […] The therapeutic index (TI) was calculated by dividing the CC50 by the EC50."}, "HRV-14": {"test_system": "HRV-14", "test": "Antirhinoviral H1-HeLa cell culture assay (XTT cell protection, EC50), HRV-14", "type": "cell-based, human rhinovirus (HRV) serotype-14 in H1-HeLa cells", "details": "Rhinovirus B, HRV14, H1-HeLa", "method_in_brief": "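XTT dye reduction (450/650 nm) measured survival of H1-HeLa cells two days after HRV-14 infection at m.o.i. 0.13 in the presence of compound, giving EC50. The therapeutic index is CC50 divided by EC50.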"}, "[2]": {"test_system": "strains of human rhinovirus (HRV)", "test": "Antirhinoviral H1-HeLa cell culture assay (XTT cell protection, EC50), other HRV strains", "type": "cell-based, human rhinovirus in H1-HeLa cells", "details": "read-out: EC50", "method_in_brief": "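Protection of H1-HeLa cells from rhinovirus was scored two days post-infection via XTT dye reduction read at 450/650 nm, alongside mock-infected cells for toxicity. CC50/EC50 gives the therapeutic index.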"}, "[3]": {"target": "T1, Recombinant rhinovirus 3C protease, serotype 14 (Human rhinovirus 14, UniProt P03303)", "T1 construct": "Recombinant rhinovirus 3C proteases; made in house", "T1 sequence (P03303 1538-1719)": "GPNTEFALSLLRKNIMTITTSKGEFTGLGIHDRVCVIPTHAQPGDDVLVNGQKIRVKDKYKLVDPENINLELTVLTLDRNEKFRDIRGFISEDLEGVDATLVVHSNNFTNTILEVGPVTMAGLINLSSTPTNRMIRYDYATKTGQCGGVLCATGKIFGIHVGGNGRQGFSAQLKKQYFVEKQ", "test": "Inhibition of rhinovirus 3C protease (FRET assay, kobs/[I]), serotype 14", "type": "biochemical", "details": "pH 7.6, read-out: kobs/[I] (3C protease inhibition activity)", "method_in_brief": "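kobs/[I] values came from progress curves of reactions started by adding 50-100 nM protease to buffer (50 mM tris pH 7.6, 1 mM EDTA, 2% DMSO) containing compound and ~1 μM quenched DABCYL-EDANS substrate. Rising EDANS fluorescence reported cleavage.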"}, "[4]": {"details": "Human rhinovirus sp., H1-HeLa, HRV-Hanks"}, "[5]": {"details": "Human rhinovirus sp., HRV3, H1-HeLa, HRV-3"}, "[6]": {"details": "Human rhinovirus sp., HRV9, H1-HeLa, HRV-9"}, "[7]": {"details": "Human rhinovirus sp., HRV10, H1-HeLa, HRV-10"}, "[8]": {"details": "Human rhinovirus sp., HRV11, H1-HeLa, HRV-11"}, "[9]": {"details": "Human rhinovirus sp., HRV13, H1-HeLa, HRV-13"}, "[10]": {"details": "Human rhinovirus sp., HRV16, H1-HeLa, HRV-16"}, "[11]": {"details": "Human rhinovirus sp., HRV19, H1-HeLa, HRV-19"}, "[12]": {"details": "Human rhinovirus sp., HRV25, H1-HeLa, HRV-25"}, "[13]": {"details": "Human rhinovirus sp., HRV39, H1-HeLa, HRV-39"}, "[14]": {"details": "Human rhinovirus sp., HRV78, H1-HeLa, HRV-78"}}, "note": "Read-outs that look alike come from different tables or passages of the source."}
{"compound": "Cc1cc(C(=O)Nc2cccn([C@@H](Cc3ccc(F)c(F)c3)C(=O)N[C@H](/C=C/C(=O)OC(C)C)C[C@@H]3CCNC3=O)c2=O)no1", "note": "[Compound 48, trans-(2′S,3″″″S,4S)-4-[3′-(3″,4″-Difluorophenyl)-2′-(3′″-{[1″″-(5′″″-methylisoxazol-3′″″-yl)methanoyl]amino}-2″″-oxo-2″″H-pyridin-1″″-yl)propanoylamino]-5-(2″″″-oxopyrrolidin-3″″″-yl)pent-2-enoic Acid Isopropyl Ester]", "values": [{"measurement": "EC50", "setting": "[1]", "value": 0.187, "unit": "µM"}, {"measurement": "EC50", "setting": "HRV-14", "value": 0.003, "unit": "µM"}, {"measurement": "EC50", "setting": "[2]; H1-HeLa, HRV-1A", "value": 0.132, "unit": "µM"}, {"measurement": "EC50", "setting": "[2]; H1-HeLa, HRV-2", "value": 0.048, "unit": "µM"}, {"measurement": "EC50", "setting": "[2]; H1-HeLa, HRV-23", "value": 0.01, "unit": "µM"}, {"measurement": "EC50", "setting": "[2]; [4]", "value": 0.003, "unit": "µM"}, {"measurement": "EC50", "setting": "[2]; [5]", "value": 0.033, "unit": "µM"}, {"measurement": "EC50", "setting": "[2]; [6]", "value": 0.109, "unit": "µM"}, {"measurement": "EC50", "setting": "[2]; [7]", "value": 0.085, "unit": "µM"}, {"measurement": "EC50", "setting": "[2]; [8]", "value": 0.003, "unit": "µM"}, {"measurement": "EC50", "setting": "[2]; [9]", "value": 0.044, "unit": "µM"}, {"measurement": "EC50", "setting": "[2]; [10]", "value": 0.036, "unit": "µM"}, {"measurement": "EC50", "setting": "[2]; [11]", "value": 0.009, "unit": "µM"}, {"measurement": "EC50", "setting": "[2]; [12]", "value": 0.1, "unit": "µM"}, {"measurement": "EC50", "setting": "[2]; [13]", "value": 0.044, "unit": "µM"}, {"measurement": "EC50", "setting": "[2]; [14]", "value": 0.012, "unit": "µM"}]}
{"compound": "C#CC[C@@H](C(=O)N[C@H](/C=C/C(=O)OC1CCC1)C[C@@H]1CCNC1=O)n1cccc(NC(=O)c2cc(C)on2)c1=O", "note": "[Compound 53, trans-(2′S,3′″″S,4S)-4-[2′-(3″-{[1′″-(5″″-Methylisoxazol-3″″-yl)methanoyl]amino}-2′″-oxo-2′″H-pyridin-1′″-yl)pent-4″-ynoylamino]-5-(2′″″-oxopyrrolidin-3′″″-yl)pent-2-enoic Acid Cyclobutyl Ester]", "values": [{"measurement": "kinact/KI", "setting": "[3]; HRV-14", "value": 207000, "unit": "M⁻¹ s⁻¹"}, {"measurement": "EC50", "setting": "[1]", "value": 0.156, "unit": "µM"}, {"measurement": "EC50", "setting": "HRV-14", "value": 0.04, "unit": "µM"}, {"measurement": "EC50", "setting": "[2]; H1-HeLa, HRV-1A", "value": 0.128, "unit": "µM"}, {"measurement": "EC50", "setting": "[2]; H1-HeLa, HRV-2", "value": 0.078, "unit": "µM"}, {"measurement": "EC50", "setting": "[2]; H1-HeLa, HRV-23", "value": 0.045, "unit": "µM"}, {"measurement": "EC50", "setting": "[2]; [4]", "value": 0.137, "unit": "µM"}, {"measurement": "EC50", "setting": "[2]; [5]", "value": 0.044, "unit": "µM"}, {"measurement": "EC50", "setting": "[2]; [6]", "value": 0.133, "unit": "µM"}, {"measurement": "EC50", "setting": "[2]; [7]", "value": 0.037, "unit": "µM"}, {"measurement": "EC50", "setting": "[2]; [8]", "value": 0.02, "unit": "µM"}, {"measurement": "EC50", "setting": "[2]; [9]", "value": 0.157, "unit": "µM"}, {"measurement": "EC50", "setting": "[2]; [10]", "value": 0.102, "unit": "µM"}, {"measurement": "EC50", "setting": "[2]; [11]", "value": 0.053, "unit": "µM"}, {"measurement": "EC50", "setting": "[2]; [12]", "value": 0.066, "unit": "µM"}, {"measurement": "EC50", "setting": "[2]; [13]", "value": 0.125, "unit": "µM"}, {"measurement": "EC50", "setting": "[2]; [14]", "value": 0.04, "unit": "µM"}]}
{"compound": "CC[C@@H](C(=O)N[C@H](/C=C/C(=O)OCc1ccccc1)C[C@@H]1CCNC1=O)n1cccc(NC(=O)c2cc(C)on2)c1=O", "note": "[Compound 62, trans-(2′S,3′″″S,4S)-4-[2′-(3″-{[1′″-(5″″-Methylisoxazol-3″″-yl)methanoyl]amino}-2′″oxo-2′″H-pyridin-1′″-yl)butanoylamino]-5-(2′″″-oxopyrrolidin-3′″″-yl)pent-2-enoic Acid Benzyl Ester]", "values": [{"measurement": "kinact/KI", "setting": "[3]; HRV-14 3C protease", "value": 210000, "unit": "M⁻¹ s⁻¹"}, {"measurement": "EC50", "setting": "[1]; H1-HeLa", "value": 0.015, "unit": "µM"}, {"measurement": "EC50", "setting": "HRV-14", "value": 0.061, "unit": "µM"}, {"measurement": "EC50", "setting": "[2]; H1-HeLa, HRV-1A", "value": 0.017, "unit": "µM"}, {"measurement": "EC50", "setting": "[2]; H1-HeLa, HRV-2", "value": 0.045, "unit": "µM"}, {"measurement": "EC50", "setting": "[2]; H1-HeLa, HRV-23", "value": 0.032, "unit": "µM"}, {"measurement": "EC50", "setting": "[2]; [4]", "value": 0.052, "unit": "µM"}, {"measurement": "EC50", "setting": "[2]; [5]", "value": 0.052, "unit": "µM"}, {"measurement": "EC50", "setting": "[2]; [6]", "value": 0.13, "unit": "µM"}, {"measurement": "EC50", "setting": "[2]; [7]", "value": 0.052, "unit": "µM"}, {"measurement": "EC50", "setting": "[2]; [8]", "value": 0.01, "unit": "µM"}, {"measurement": "EC50", "setting": "[2]; [9]", "value": 0.004, "unit": "µM"}, {"measurement": "EC50", "setting": "[2]; [10]", "value": 0.053, "unit": "µM"}, {"measurement": "EC50", "setting": "[2]; [11]", "value": 0.021, "unit": "µM"}, {"measurement": "EC50", "setting": "[2]; [12]", "value": 0.018, "unit": "µM"}, {"measurement": "EC50", "setting": "[2]; [13]", "value": 0.043, "unit": "µM"}, {"measurement": "EC50", "setting": "[2]; [14]", "value": 0.057, "unit": "µM"}]}
{"compound": "C#CC[C@@H](C(=O)N[C@H](/C=C/C(=O)OCc1ccccc1)C[C@@H]1CCNC1=O)n1cccc(NC(=O)c2cc(C)on2)c1=O", "note": "[Compound 63, trans-(2′S,3′″″S,4S)-4-[2′-(3″-{[1′″-(5″″-Methylisoxazol-3″″-yl)methanoyl]amino}-2′″-oxo-2′″H-pyridin-1′″-yl)pent-4″-ynoylamino]-5-(2′″″-oxopyrrolidin-3′″″-yl)pent-2-enoic Acid Benzyl Ester]", "values": [{"measurement": "kinact/KI", "setting": "[3]; HRV-14 3C protease", "value": 300000, "unit": "M⁻¹ s⁻¹"}, {"measurement": "EC50", "setting": "[1]; H1-HeLa", "value": 0.014, "unit": "µM"}, {"measurement": "EC50", "setting": "HRV-14", "value": 0.051, "unit": "µM"}, {"measurement": "EC50", "setting": "[2]; H1-HeLa, HRV-1A", "value": 0.012, "unit": "µM"}, {"measurement": "EC50", "setting": "[2]; H1-HeLa, HRV-2", "value": 0.024, "unit": "µM"}, {"measurement": "EC50", "setting": "[2]; H1-HeLa, HRV-23", "value": 0.037, "unit": "µM"}, {"measurement": "EC50", "setting": "[2]; [4]", "value": 0.4, "unit": "µM"}, {"measurement": "EC50", "setting": "[2]; [5]", "value": 0.027, "unit": "µM"}, {"measurement": "EC50", "setting": "[2]; [6]", "value": 0.065, "unit": "µM"}, {"measurement": "EC50", "setting": "[2]; [7]", "value": 0.046, "unit": "µM"}, {"measurement": "EC50", "setting": "[2]; [8]", "value": 0.017, "unit": "µM"}, {"measurement": "EC50", "setting": "[2]; [9]", "value": 0.045, "unit": "µM"}, {"measurement": "EC50", "setting": "[2]; [10]", "value": 0.046, "unit": "µM"}, {"measurement": "EC50", "setting": "[2]; [11]", "value": 0.014, "unit": "µM"}, {"measurement": "EC50", "setting": "[2]; [12]", "value": 0.007, "unit": "µM"}, {"measurement": "EC50", "setting": "[2]; [13]", "value": 0.035, "unit": "µM"}, {"measurement": "EC50", "setting": "[2]; [14]", "value": 0.034, "unit": "µM"}]}
